Laboratory results as given in publication PMC4000412, “Novel LHRH-receptor-targeted cytolytic peptide, EP-100: first-in-human phase I study in patients with advanced LHRH-receptor-expressing solid tumors” (Cancer Chemotherapy and Pharmacology, 2014).
Entries after “also recorded” stand apart in the source; their conditions may differ. Peptide text beside a SMILES is read from it.

Key:
[1] = Phase I dose-escalation safety: MTD, DLT, adverse events (NCI CTCAE 3.0); assay type: in vivo, human
Experimental: An open-label dose-escalation study was conducted at three centers after review and approval by each centers’ Institutional Review Board. Patients’ written informed consent was provided prior to study enrollment. The primary objectives of the study were to determine the maximum-tolerated dose (MTD) of EP-100 by intravenous (IV) infusion and to describe any dose limiting toxicities (DLT), which would inform the recommended phase 2 dose (RP2D) of EP-100 for future phase 2 protocols. Secondary objectives included: (a) to profile the PK and PD of EP-100, (b) to assess any drug immunogenicity by antidrug antibodies (ADA) which may react with endogenous LHRH, (c) to monitor biomarkers of pharmacologic activity of EP-100 and (d) to assess antitumor activity of EP-100 by radiographic assessments.
Cohorts of three patients were enrolled in a 3 + 3 dose-escalation design. […] A conservative first-in-human starting dose of 0.6 mg/m^2 was chosen, based on the repeat-dose toxicity studies in dogs (which appeared to be the most sensitive species). The initial dose schedule of one 30 min infusion weekly was predicted from animal PK profiles. Dosing frequency and infusion time were increased in subsequent cohorts by two protocol amendments. To increase the cumulative dose-exposure to EP-100, infusions were increased to twice weekly after conducting safety assessments in the first seven cohorts (n = 21 patients, at dose levels 0.6–7.8 mg/m^2). Twice weekly infusions effectively doubled the EP-100 delivered in all patients after cohort 7. The infusion time for the twice weekly doses also was increased from 30 to 60 min beginning with one patient in cohort 8 (dose level 11.7 mg/m^2), which decreased the intensity of infusion reactions (described below).
The absence of grade 2 drug-related toxicities in lower dose cohorts allowed 100 % dose acceleration. In the event of grade 2 or higher non-DLT in one or more patients, dose was escalated by 50 %. Dose escalation was limited to 50 % for any grade 1 or 2 drug-related dermatologic reactions unlikely to be allergic reaction or histamine-release syndromes and to 25 % for any grade 3 or 4 drug-related infusion reaction. With occurrence of the first DLT, the cohort was expanded to three additional patients. If one or more of the three additional patients at that dose level experienced DLT (total of two or more patients with DLT), MTD was reached. MTD was defined as the dose level below which two out of three to six patients experienced a DLT during the first cycle or during 1 complete cycle (28 days).
All adverse events (AE) were graded and reported according to National Cancer Institute Common Terminology Criteria for Adverse Events version 3.0 (NCI CTCAE 3.0). DLT were recorded during Cycle 1 if patients had any of the following: grade 4 neutropenia lasting 5 or more days, grade 3/4 neutropenia with fever and/or infection, grade 4 thrombocytopenia or grade 3 thrombocytopenia with bleeding, grade 3 or 4 allergic reaction, grade 3 or 4 drug-related non-hematologic toxicity (not including grade 3 nausea/vomiting or diarrhea with sub-optimal prophylactic and curative treatment) or a dose delay of more than 2 weeks due to treatment-related AE or laboratory abnormalities. Any grade 3 AE not judged to be clinically significant (e.g., alopecia or drug-related fever) were not considered DLT.

[2] = tested on: pituitary gonadotropes (LHRH receptors); assay: Pharmacodynamics: serum FSH, LH and other pituitary hormones in patients; assay type: in vivo, human
Experimental: FSH and LH levels as well as testosterone in men and estradiol levels in women were obtained on Days 1, 8, 15 and 22 within 24 h prior to dosing. Testosterone and estradiol levels were measured on Day 1 only after Cycle 1 and at off study assessment. Blood was collected for circulating tumor cells (CTC) prior to dosing on Day 1 of the first cycle. Patients with positive CTC at baseline also had blood collected for CTC analysis prior to dosing on Day 1 of each subsequent cycle. Additional studies included plasma cortisol, adrenocorticotropin (ACTH), thyroxine (T4) and thyroid-stimulating hormone (TSH) and blood for tumor specific biomarker analysis (at investigator’s discretion), all obtained prior to Day 1 dosing with each cycle and at off study assessment. Samples for antidrug antibodies (ADA) were collected on Day 1 of Cycle 1 and then on Day 1 of every odd cycle.

[3] = selected toxicities, all cycles, N = 37

CC(C)C[C@H](NC(=O)CNC(=O)[C@H](Cc1ccc(O)cc1)NC(=O)[C@H](CO)NC(=O)[C@H](Cc1c[nH]c2ccccc12)NC(=O)[C@H](Cc1c[nH]cn1)NC(=O)[C@@H]1CCC(=O)N1)C(=O)N[C@@H](CCCNC(=N)N)C(=O)N1CCC[C@H]1C(=O)NCC(=O)N[C@@H](CCCCN)C(=O)N[C@@H](Cc1ccccc1)C(=O)N[C@@H](C)C(=O)N[C@@H](CCCCN)C(=O)N[C@@H](Cc1ccccc1)C(=O)N[C@@H](C)C(=O)N[C@@H](CCCCN)C(=O)N[C@@H](CCCCN)C(=O)N[C@@H](Cc1ccccc1)C(=O)N[C@@H](C)C(=O)N[C@@H](CCCCN)C(=O)N[C@@H](Cc1ccccc1)C(=O)N[C@@H](C)C(=O)N[C@@H](CCCCN)C(=O)N[C@@H](CCCCN)C(=O)N[C@@H](Cc1ccccc1)C(=O)N[C@@H](C)C(=O)N[C@@H](CCCCN)C(=O)O [EP-100] (HELM PEPTIDE1{[Glp].H.W.S.Y.G.L.R.P.G.K.F.A.K.F.A.K.K.F.A.K.F.A.K.K.F.A.K}$$$$V2.0; C-terminus assumed)
IRDRs in the four lowest dose cohorts ([1]; 0.6–1.7 mg/m^2 at dose concentrations of 0.01–0.03 mg/mL): No IRDRs | toxicities / AE of grade 3 or higher ([1]; all 37 patients, all dose levels): No toxicities ≥grade 3; also recorded: no grade 3 or 4 AE | IRDRs (infusion-related dermatologic reactions) reported ([1]; all dose levels): 10 of 37 | SAE Disease progression, No. of patients (%) ([1]; dosing 1.35 mg/m^2 qw): 1 (2.7) No. of patients (%) | SAE Disease progression, Outcome ([1]; dosing 1.35 mg/m^2 qw): Death | SAE Disease progression, Relationship to EP-100 ([1]; dosing 1.35 mg/m^2 qw): Unrelated | SAE Gastrointestinal hemorrhage, No. of patients (%) ([1]; dosing 1.35 mg/m^2 qw): 1 (2.7) No. of patients (%) | SAE Gastrointestinal hemorrhage, Outcome ([1]; dosing 1.35 mg/m^2 qw): Resolved | SAE Gastrointestinal hemorrhage, Relationship to EP-100 ([1]; dosing 1.35 mg/m^2 qw): Unlikely related | SAE Peripheral edema, No. of patients (%) ([1]; dosing 1.35 mg/m^2 qw): 1 (2.7) No. of patients (%) | SAE Peripheral edema, Outcome ([1]; dosing 1.35 mg/m^2 qw): Resolved with sequelae | SAE Peripheral edema, Relationship to EP-100 ([1]; dosing 1.35 mg/m^2 qw): Unrelated | SAE Pain, No. of patients (%) ([1]; dosing 1.7 mg/m^2 qw): 1 (2.7) No. of patients (%) | SAE Pain, Outcome ([1]; dosing 1.7 mg/m^2 qw): Ongoing | SAE Pain, Relationship to EP-100 ([1]; dosing 1.7 mg/m^2 qw): Unrelated | SAE Chills, No. of patients (%) ([1]; dosing 11.7 mg/m^2 biw): 1 (2.7) No. of patients (%) | SAE Chills, Outcome ([1]; dosing 11.7 mg/m^2 biw): Resolved | SAE Chills, Relationship to EP-100 ([1]; dosing 11.7 mg/m^2 biw): Unrelated | SAE Hydronephrosis, No. of patients (%) ([1]; dosing 11.7 mg/m^2 biw): 1 (2.7) No. of patients (%) | SAE Hydronephrosis, Outcome ([1]; dosing 11.7 mg/m^2 biw): Resolved | SAE Hydronephrosis, Relationship to EP-100 ([1]; dosing 11.7 mg/m^2 biw): Unrelated | SAE Febrile neutropenia, No. of patients (%) ([1]; dosing 17.5 mg/m^2 biw): 1 (2.7) No. of patients (%) | SAE Febrile neutropenia, Outcome ([1]; dosing 17.5 mg/m^2 biw): Resolved | SAE Febrile neutropenia, Relationship to EP-100 ([1]; dosing 17.5 mg/m^2 biw): Unrelated | SAE Ascites, No. of patients (%) ([1]; dosing 26 mg/m^2 biw): 1 (2.7) No. of patients (%) | SAE Ascites, Outcome ([1]; dosing 26 mg/m^2 biw): Resolved with sequelae | SAE Ascites, Relationship to EP-100 ([1]; dosing 26 mg/m^2 biw): Unlikely related | SAE Fatigue, No. of patients (%) ([1]; dosing 26 mg/m^2 biw): 1 (2.7) No. of patients (%) | SAE Fatigue, Outcome ([1]; dosing 26 mg/m^2 biw): Resolved | SAE Fatigue, Relationship to EP-100 ([1]; dosing 26 mg/m^2 biw): Unrelated | SAE Facial paresis, No. of patients (%) ([1]; dosing 40 mg/m^2 biw): 1 (2.7) No. of patients (%) | SAE Facial paresis, Outcome ([1]; dosing 40 mg/m^2 biw): Ongoing | SAE Facial paresis, Relationship to EP-100 ([1]; dosing 40 mg/m^2 biw): Unrelated | SAE Gastrointestinal obstruction, No. of patients (%) ([1]; dosing 0.6, 0.9 mg/m^2 qw): 2 (5.4) No. of patients (%) | SAE Gastrointestinal obstruction, Outcome ([1]; dosing 0.6, 0.9 mg/m^2 qw): Resolved with sequelae | SAE Gastrointestinal obstruction, Relationship to EP-100 ([1]; dosing 0.6, 0.9 mg/m^2 qw): Unrelated | SAE Pleural effusion, No. of patients (%) ([1]; dosing 11.7, 26 mg/m^2 biw): 2 (5.4) No. of patients (%) | SAE Pleural effusion, Outcome ([1]; dosing 11.7, 26 mg/m^2 biw): Resolved | SAE Pleural effusion, Relationship to EP-100 ([1]; dosing 11.7, 26 mg/m^2 biw): Unrelated | maximum-tolerated dose (MTD) ([1]; highest dose evaluated 40 mg/m^2 twice weekly, IV infusion, 3 of 4 weeks per 28 day cycle): not reached | onset of IRDRs after start of the drug infusion ([1]; in vivo): ≤ 15 min | infusion site hypersensitivity, patients ([1]; n = 4 patients of 37): 10.8% | pain, patients ([1]; one patient of 37): 2.7% | AP (alkaline phosphatase), Grade 1/2 [1, 3]: 1 (2.7) No. of patients (%) | AP (alkaline phosphatase), Grade 3/4 [1, 3]: 0 No. of patients (%) | AST/ALT, Grade 1/2 [1, 3]: 1 (2.7) No. of patients (%) | AST/ALT, Grade 3/4 [1, 3]: 0 No. of patients (%) | Diarrhea, Grade 1/2 [1, 3]: 1 (2.7) No. of patients (%) | Diarrhea, Grade 3/4 [1, 3]: 0 No. of patients (%) | Fatigue, Grade 1/2 [1, 3]: 4 (10.8) No. of patients (%) | Fatigue, Grade 3/4 [1, 3]: 0 No. of patients (%) | Gastroesophageal reflux, Grade 1/2 [1, 3]: 1 (2.7) No. of patients (%) | Gastroesophageal reflux, Grade 3/4 [1, 3]: 0 No. of patients (%) | Hemoglobin, Grade 1/2 [1, 3]: 0 No. of patients (%) | Hemoglobin, Grade 3/4 [1, 3]: 0 No. of patients (%) | Infusion-related dermatologic reactions, Grade 1/2 [1, 3]: 10 (27) No. of patients (%) | Infusion-related dermatologic reactions, Grade 3/4 [1, 3]: 0 No. of patients (%) | Neutrophils, Grade 1/2 [1, 3]: 0 No. of patients (%) | Neutrophils, Grade 3/4 [1, 3]: 0 No. of patients (%) | Platelets, Grade 1/2 [1, 3]: 0 No. of patients (%) | Platelets, Grade 3/4 [1, 3]: 0 No. of patients (%) | Total bilirubin, Grade 1/2 [1, 3]: 0 No. of patients (%) | Total bilirubin, Grade 3/4 [1, 3]: 0 No. of patients (%) | Vomiting, Grade 1/2 [1, 3]: 1 (2.7) No. of patients (%) | Vomiting, Grade 3/4 [1, 3]: 0 No. of patients (%) | number of SAE recorded ([1]; treatment-emergent, 37 patients): Fourteen | decreased appetite, patients ([1]; two patients of 37): 5.4% | time to disappearance of all IRDR symptoms after cessation of the infusion ([1]; typically): ≤ 30 min | reduction from baseline FSH ([2]; one breast cancer patient, dose level 7.8 mg/m^2, FSH 127–15 U/L): 88% | LH reduction ([2]; one breast cancer patient, dose level 7.8 mg/m^2, LH 24–1 U/L): 96% | effect on other pituitary hormones (ACTH and TSH) ([2]; patients): not affected | FSH decrease ([2]; second breast cancer patient, 11.7 mg/m^2, FSH 21–4 U/L): 81% | FSH decrease ([2]; third breast cancer patient, 26 mg/m^2, FSH 27–4 U/L): 85% | LH decrease ([2]; third breast cancer patient, 26 mg/m^2, LH 27–1.3 U/L): 95% | patients with sustained decreases in LH and FSH ([2]; three patients of 37, dose levels 11.7 and 26 mg/m^2, all breast cancer): 8%
